Experimental data: PubChem BioAssay AID1259407 (Chemical Carcinogenesis Research Information System (CCRIS), 2018)
Activity calls are given as the source filed them. The rule behind the calls is not given here.

System: CCRIS mutagenicity, Ames/micronucleus/aberration tests
Assay: CCRIS mutagenicity studies
[1] = Test System: AMES SALMONELLA TYPHIMURIUM, Strain/Indicator: TA98, Metabolic Activation: NONE, Method: STANDARD PLATE
[2] = Test System: AMES SALMONELLA TYPHIMURIUM, Strain/Indicator: TA100, Metabolic Activation: NONE, Method: STANDARD PLATE

Cc1c2c(c(C)c3c1ccc1ccccc13)C=C[C@@H](O)[C@@H]2O
mutagenic call (Test System: CHINESE HAMSTER V-79, Strain/Indicator: V-79/OUABAIN, Metabolic Activation: CELL-MEDIATED, Method: STANDARD PLATE): active; positive

CC(Cc1ccc(O)c(O)c1)C(C)Cc1ccc(O)c(O)c1 (configuration not stated)
mutagenic call (Test System: AMES SALMONELLA TYPHIMURIUM, Strain/Indicator: TA98, Metabolic Activation: HAMSTER, LIVER, S-9, AROCLOR 1254, Method: STANDARD PLATE): inactive; negative
mutagenic call [1]: inactive; negative
mutagenic call (Test System: AMES SALMONELLA TYPHIMURIUM, Strain/Indicator: TA98, Metabolic Activation: RAT, LIVER, S-9, AROCLOR 1254, Method: STANDARD PLATE): inactive; negative
mutagenic call (Test System: AMES SALMONELLA TYPHIMURIUM, Strain/Indicator: TA100, Metabolic Activation: HAMSTER, LIVER, S-9, AROCLOR 1254, Method: STANDARD PLATE): inactive; negative
mutagenic call [2]: inactive; negative
mutagenic call (Test System: AMES SALMONELLA TYPHIMURIUM, Strain/Indicator: TA100, Metabolic Activation: RAT, LIVER, S-9, AROCLOR 1254, Method: STANDARD PLATE): inactive; negative
mutagenic call (Test System: AMES SALMONELLA TYPHIMURIUM, Strain/Indicator: TA1535, Metabolic Activation: HAMSTER, LIVER, S-9, AROCLOR 1254, Method: STANDARD PLATE): inactive; negative
mutagenic call (Test System: AMES SALMONELLA TYPHIMURIUM, Strain/Indicator: TA1535, Metabolic Activation: NONE, Method: STANDARD PLATE): inactive; negative
mutagenic call (Test System: AMES SALMONELLA TYPHIMURIUM, Strain/Indicator: TA1535, Metabolic Activation: RAT, LIVER, S-9, AROCLOR 1254, Method: STANDARD PLATE): inactive; negative
mutagenic call (Test System: AMES SALMONELLA TYPHIMURIUM, Strain/Indicator: TA1537, Metabolic Activation: HAMSTER, LIVER, S-9, AROCLOR 1254, Method: STANDARD PLATE): inactive; negative
mutagenic call (Test System: AMES SALMONELLA TYPHIMURIUM, Strain/Indicator: TA1537, Metabolic Activation: NONE, Method: STANDARD PLATE): inactive; negative
mutagenic call (Test System: AMES SALMONELLA TYPHIMURIUM, Strain/Indicator: TA1537, Metabolic Activation: RAT, LIVER, S-9, AROCLOR 1254, Method: STANDARD PLATE): inactive; negative
mutagenic call (Test System: AMES SALMONELLA TYPHIMURIUM, Strain/Indicator: TA1538, Metabolic Activation: HAMSTER, LIVER, S-9, AROCLOR 1254, Method: STANDARD PLATE): inactive; negative
mutagenic call (Test System: AMES SALMONELLA TYPHIMURIUM, Strain/Indicator: TA1538, Metabolic Activation: NONE, Method: STANDARD PLATE): inactive; negative
mutagenic call (Test System: AMES SALMONELLA TYPHIMURIUM, Strain/Indicator: TA1538, Metabolic Activation: RAT, LIVER, S-9, AROCLOR 1254, Method: STANDARD PLATE): inactive; negative
mutagenic call (Test System: MOUSE LYMPHOMA, Strain/Indicator: L5178Y (TK+/TK-), Metabolic Activation: NONE, Method: SUSPENSION/PLATE): active; positive. reevaluation of results: positive
mutagenic call (Test System: MOUSE LYMPHOMA, Strain/Indicator: L5178Y (TK+/TK-), Metabolic Activation: RAT, LIVER, S-9, AROCLOR 1254, Method: SUSPENSION/PLATE): inactive; negative. reevaluation of results: negative

O=[N+]([O-])c1ccc2ccc3cc4c(c5ccc1c2c35)CCCC4
mutagenic call [1]: active; positive
mutagenic call [2]: inactive; negative

O=Nn1cc(CC(O)C(=O)O)c2ccccc21 (configuration not stated)
mutagenic call [1]: active; positive

C[C@@H]1C[C@@]2(C)[C@@H](CC[C@@H]3[C@@H]2CC[C@]2(C)[C@@H](O)CC[C@@H]32)CC1=O
mutagenic call [1]: inactive; negative
mutagenic call (Test System: AMES SALMONELLA TYPHIMURIUM, Strain/Indicator: TA98, Metabolic Activation: S-9, Method: STANDARD PLATE): inactive; negative
mutagenic call [2]: inactive; negative
mutagenic call (Test System: AMES SALMONELLA TYPHIMURIUM, Strain/Indicator: TA100, Metabolic Activation: S-9, Method: STANDARD PLATE): inactive; negative
mutagenic call (Test System: E. COLI, Strain/Indicator: WP2 (HCR), Metabolic Activation: NONE, Method: STANDARD PLATE): inactive; negative
mutagenic call (Test System: E. COLI, Strain/Indicator: WP2 (HCR), Metabolic Activation: S-9, Method: STANDARD PLATE): inactive; negative
